Among the data in ChEMBL document CHEMBL4811278, “Discovery of novel modulators for the PPARα (peroxisome proliferator activated receptor α): Potential therapies for nonalcoholic fatty liver disease” (Bioorg Med Chem, 2021) are Activity, EC50 and inhibition in vivo values, retold here.

Each structure is given as a SMILES string. Calls of active or inactive are those of the source. The rule behind the calls is not given here. Some results are limits rather than exact numbers.

The subject of assay [1] is Mus musculus. As to the kind of experiment: Hypolipidemic activity in high fat diet-induced nonalcoholic steatohepatitis C57BL/6J mouse model assessed as reduction in lipid accumulation in liver at 3 mg/kg, po administered once daily for 1 week by Oil Red O staining based assay. It is filed as functional, organism-based. Conditions: time 1.0 weeks.
For assay [2], the target named is T1, Peroxisome proliferator-activated receptor alpha (Mus musculus) (UniProt P23204).
T1 sequence (whole entry): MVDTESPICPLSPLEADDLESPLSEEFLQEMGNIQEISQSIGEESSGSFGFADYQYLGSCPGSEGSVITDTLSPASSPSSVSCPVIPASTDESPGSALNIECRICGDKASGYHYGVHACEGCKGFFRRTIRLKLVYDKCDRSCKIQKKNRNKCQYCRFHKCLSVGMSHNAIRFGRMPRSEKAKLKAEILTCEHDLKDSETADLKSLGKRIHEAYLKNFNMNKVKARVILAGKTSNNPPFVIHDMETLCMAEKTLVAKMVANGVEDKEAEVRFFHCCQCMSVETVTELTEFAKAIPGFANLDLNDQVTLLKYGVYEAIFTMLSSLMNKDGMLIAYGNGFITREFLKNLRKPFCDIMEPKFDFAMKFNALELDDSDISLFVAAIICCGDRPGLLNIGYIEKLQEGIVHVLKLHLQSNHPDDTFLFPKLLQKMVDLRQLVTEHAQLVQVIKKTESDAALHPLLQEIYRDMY
As to the kind of experiment: In vivo agonist activity at PPARalpha in high fat diet-induced nonalcoholic steatohepatitis C57BL/6J mouse model assessed as trans-repression of ApoC3 mRNA expression in liver administered at 3 mg/kg, po and measured after 24 hrs by quantitative real time PCR analysis. It is filed as functional, organism-based. For orientation: Quantitative PCR measures a nucleic acid by following its amplification.

Assay [3] addresses T1, Peroxisome proliferator-activated receptor alpha (Mus musculus). As to the kind of experiment: In vivo agonist activity at PPARalpha in high fat diet-induced nonalcoholic steatohepatitis C57BL/6J mouse model assessed as increase in LPL mRNA expression in liver administered at 3 mg/kg, po and measured after 24 hrs by quantitative real time PCR analysis. It is filed as functional, organism-based.

The target of assay [4] is T2, Peroxisome proliferator-activated receptor gamma (Homo sapiens, UniProt P37231).
T2 sequence (P37231 whole entry): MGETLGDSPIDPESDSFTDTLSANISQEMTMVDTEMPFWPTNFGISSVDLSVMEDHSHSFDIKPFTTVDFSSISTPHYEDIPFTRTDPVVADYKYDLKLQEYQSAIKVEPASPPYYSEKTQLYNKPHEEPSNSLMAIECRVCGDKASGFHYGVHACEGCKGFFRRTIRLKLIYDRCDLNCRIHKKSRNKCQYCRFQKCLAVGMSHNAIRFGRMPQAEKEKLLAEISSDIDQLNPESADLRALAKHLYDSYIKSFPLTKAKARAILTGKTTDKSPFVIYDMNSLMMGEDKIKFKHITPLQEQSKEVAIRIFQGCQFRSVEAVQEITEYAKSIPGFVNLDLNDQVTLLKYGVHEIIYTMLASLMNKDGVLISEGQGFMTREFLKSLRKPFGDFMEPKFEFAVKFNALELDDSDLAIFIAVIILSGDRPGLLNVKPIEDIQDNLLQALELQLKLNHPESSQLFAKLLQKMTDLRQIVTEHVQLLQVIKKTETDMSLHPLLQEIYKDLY
As to the kind of experiment: Agonist activity at Gal4-fused human PPARgamma expressed in monkey CV1 cells assessed as receptor transactivation incubated for 45 hrs by luciferase reporter gene assay. It is filed as cell-based, CV-1. On the technique in general: In a reporter assay the amount or activity of a reporter protein is the signal.

Assay [5] concerns the target T3, Peroxisome proliferator-activated receptor alpha (Homo sapiens, UniProt Q07869).
T3 sequence (Q07869 whole entry): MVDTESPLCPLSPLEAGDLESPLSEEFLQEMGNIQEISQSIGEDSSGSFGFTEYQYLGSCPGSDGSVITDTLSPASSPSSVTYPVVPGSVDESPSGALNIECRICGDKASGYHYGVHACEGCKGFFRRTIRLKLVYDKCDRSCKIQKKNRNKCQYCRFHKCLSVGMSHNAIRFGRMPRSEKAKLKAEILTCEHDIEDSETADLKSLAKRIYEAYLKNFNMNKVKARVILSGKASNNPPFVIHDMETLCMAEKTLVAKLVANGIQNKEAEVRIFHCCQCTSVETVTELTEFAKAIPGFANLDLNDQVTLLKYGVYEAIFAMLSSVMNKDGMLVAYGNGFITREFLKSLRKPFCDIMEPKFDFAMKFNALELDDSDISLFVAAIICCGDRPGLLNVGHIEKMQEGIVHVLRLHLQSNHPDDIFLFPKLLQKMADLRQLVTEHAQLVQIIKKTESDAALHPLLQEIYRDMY
As to the kind of experiment: Agonist activity at Gal4-fused human PPARalpha co-expressed with RXRalpha in monkey CV1 cells assessed as PPRE transcriptional activation incubated for 45 hrs by luciferase reporter gene assay. The assay is classed as cell-based, CV-1.

Assay [6] concerns Mus musculus. As to the kind of experiment: Hypolipidemic activity in high fat diet-induced nonalcoholic steatohepatitis C57BL/6J mouse model assessed as reduction in plasma free fatty acid level at 3 mg/kg, po administered once daily via gavage for 7 days. The assay is classed as functional. As to conditions: 168 h, time 7 day.
Assay [7] relates to Mus musculus. As to the kind of experiment: Hypolipidemic activity in high fat diet-induced nonalcoholic steatohepatitis C57BL/6J mouse model assessed as reduction in plasma triglyceride level at 3 mg/kg, po administered once daily via gavage for 7 days. It is filed as functional. As to conditions: 168 h, time 7 day.

Regarding `COc1ccc(Cn2c(CCCc3ccc(OC(C)(C)C(=O)O)cc3)nn(Cc3ccc(C)cc3)c2=O)cc1`, the outcome (in the assay on Mus musculus [1]; in assay [2]; in assay [3]) was Active. Besides, the EC50 (commonly the concentration needed to bring the measured effect to its halfway point) in assay [4] is over 10000 nM; in assay [5] it was 0.87 nM. Also, the values for the inhibition in vivo at 3 mg/kg in the assay on Mus musculus [6] and with Mus musculus [7] were at least 60% and at least 50%, respectively.
